Results: article PMC10094617, “Iron(III) Complexes with Non-Steroidal Anti-Inflammatory Drugs: Structure, Antioxidant and Anticholinergic Activity, and Interaction with Biomolecules” (International Journal of Molecular Sciences, 2023)

Assays:
[1] = Solubility of the complexes; type: physicochemical
[2] = ABTS radical cation scavenging; type: biochemical; conditions: compound 0.1 mM; 1 min after mixing
Protocol: (§1) The antioxidant activity of complexes 1–3 was evaluated via their ability to scavenge the free radicals DPPH, hydroxyl, and ABTS. Each experiment was performed in triplicate and the standard deviation of absorbance was less than 10% of the mean.
Assay of radical cation scavenging activity (ABTS^+•): An ABTS cationic radical (ABTS^+•) was produced by reacting an aqueous stock solution (2 mM) of ABTS with 0.17-mM potassium persulfate and allowing the mixture to stand in the dark at room temperature for 12–16 h before use. […] Although the oxidation of ABTS commenced immediately, the absorbance became maximal and stable after 6 h. The radical was stable in this form for more than two days when stored in the dark at room temperature. The ABTS radical solution was diluted with ethanol to an absorbance of 0.70 at 734 nm. After the addition of 10 μL of complexes 1–3 or the standards (0.1 mM) in DMSO, the absorbance was recorded exactly 1 min after initial mixing. The radical scavenging activity of the complexes was expressed as the percentage inhibition of the absorbance of the initial ABTS solution (ABTS%). Trolox was used as a reference compound.

EB–DNA adduct (CT DNA) = test: EB-displacement from EB–DNA adduct (fluorescence emission); type: binding, calf; conditions: for KSV Stern–Volmer constant (EB–DNA): EB–DNA fluorescence; for relative EB–DNA fluorescence intensity (I/Io, %) remaining: λem = 592 nm, up to, % of the initial EB–DNA fluorescence; for Kq quenching constant of the EB–DNA fluorescence: τo = 23 ns
Protocol: EB-displacement studies: The competition of complexes 1–3 with EB was investigated by fluorescence emission spectroscopy in order to examine whether the complexes can displace EB from its DNA–EB conjugate. The DNA–EB conjugate was prepared by adding 20-μM EB and 26-μM CT DNA in the buffer solution (150-mM NaCl and 15-mM trisodium citrate at pH 7.0). The possible intercalating effect of the complexes was studied by the addition of a certain amount of a solution of the compound into a solution of the DNA–EB conjugate. The influence of each compound to the DNA–EB complex solution was obtained by recording the changes in the fluorescence emission spectra with the excitation wavelength (λex) at 540 nm.
The Stern–Volmer constant KSV is used to evaluate the quenching efficiency for each compound according to the Stern–Volmer equation (Equation (3)), where Io and I are the emission intensities in the absence and the presence of the quencher, respectively, and [Q] is the concentration of the quencher (i.e., complexes 1–3). The value of KSV is obtained from the Stern–Volmer plots by using the slope of the diagram Io/I versus [Q]. Taking τo = 23 ns as the fluorescence lifetime of the EB–DNA system, the EB–DNA quenching constants (Kq, in M^−1s^−1) of the compounds can be determined according to Equation (4).

DPPH radical scavenging = type: biochemical; conditions: compound 0.1 mM; for DPPH% (DPPH scavenging ability), 20 min / DPPH% (DPPH scavenging ability), 60 min: ethanol
Protocol: as §1
Ethanol was also used as a control solution. The absorbance at 517 nm was recorded at room temperature, two times, after 20 and 60 min, in order to examine the time-dependence of the DPPH-scavenging activity. The DPPH-scavenging activity of the compounds was expressed as the percentage reduction of the absorbance values of the initial DPPH solution (RA%). The compounds NDGA and BHT were used as reference compounds.

Substance | solubility [1] | ABTS% (ABTS radical scavenging activity) [2] [%] | KSV Stern–Volmer constant (EB–DNA) (EB–DNA adduct (CT DNA)) | relative EB–DNA fluorescence intensity (I/Io, %) remaining (EB–DNA adduct (CT DNA)) [%] | Kq quenching constant of the EB–DNA fluorescence (EB–DNA adduct (CT DNA)) | DPPH% (DPPH scavenging ability), 20 min (DPPH radical scavenging) [%] | DPPH% (span over 20-min and 60-min treatments) (DPPH radical scavenging; 20 min and 60 min) | DPPH% (DPPH scavenging ability), 60 min (DPPH radical scavenging) [%] | ΔI/Io (%) EB–DNA fluorescence quenching (EB–DNA adduct (CT DNA); [EB] = 20 μM, [DNA] = 26 μM, λex 540 nm, λem 592 nm) [%]
[Fe3O(dicl)6(py)3]Cl∙py [Complex 2] | Soluble in DMSO | 85.39 ± 0.52 | 6.15 (±0.29) × 10^5 M^−1 | 41.8 | 2.68 (±0.56) × 10^13 M^−1s^−1 | 23.12 ± 0.37 | 22.97–23.12% | 22.97 ± 0.17 | 
[Fe3O(dicl)6(MeOH)3][FeCl4]·Hdicl·1.5MeOH∙H2O [Complex 3] | Soluble in DMSO | 87.72 ± 0.36 | 1.53 (±0.51) × 10^6 M^−1 | 25.7 | 6.66 (±0.23) × 10^13 M^−1s^−1 | 18.94 ± 0.73 |  | 18.98 ± 0.74 | 74.3
